Measured values published in the NIST ThermoML archive (doi:10.1021/je901050v).

How the values were obtained:
[1] = 101.33 kPa, Liquid; for mass density: Vibrating tube method; for viscosity: Concentric cylinders viscometry
[2] = refractive index (Na D-line) (dimensionless); details: 101.33 kPa, Liquid, Standard Abbe refractometry

CCCCCCCCCCn1cc[n+](CCC#N)c1.[Br-] [3-(2-cyanoethyl)-1-decyl-1H-imidazolium bromide]
Details	mass density, [1] [kg/m3]	refractive index, [2]	viscosity, [1] [mPa·s]
308.15 K	1134.2	1.50786	–
313.15 K	1129.5	1.50696	16702
318.15 K	1125.6	1.50606	10314
323.15 K	1121.2	1.50502	6813.4
328.15 K	1118.2	1.50388	4573.6
333.15 K	1115	1.50279	3016.4
338.15 K	1111.7	–	2051.2
343.15 K	1108.5	–	1426.6
348.15 K	1105.2	–	1014.6
353.15 K	1101.9	–	737

CCCCCCCCn1cc[n+](CCC#N)c1.[Br-] [3-(2-cyanoethyl)-1-octyl-1H-imidazolium bromide]
Details	mass density, [1] [kg/m3]	refractive index, [2]	viscosity, [1] [mPa·s]
293.15 K	1180.1	–	–
298.15 K	1176.6	1.51473	–
303.15 K	1173.2	1.51362	–
308.15 K	1169.8	1.51266	19620
313.15 K	1166.4	1.51149	13044
318.15 K	1163	1.51024	8302.7
323.15 K	1159.6	1.50891	5136.1
328.15 K	1156.2	1.50757	3291.8
333.15 K	1152.9	1.50604	2160.4
338.15 K	1149.5	–	1459.8
343.15 K	1146.1	–	1019.6
348.15 K	1142.8	–	727.9
353.15 K	1139.6	–	530.5
